Laboratory results published in ChEMBL document CHEMBL1138161, “Structure-activity relationships of alpha-amino acid ligands for the alpha2delta subunit of voltage-gated calcium channels” (Bioorg Med Chem Lett, 2006).

Assays:
[1] = tested on: Rattus norvegicus; test: Potency against persistent inflammatory pain in orally dosed rat CFA model; format: functional; conditions: po
[2] = Concentration in rat brain after 0.75 h at 100 umol/kg, po; format: ADME, organism-based; conditions: read-out: Drug uptake
[3] = tested on: Rattus norvegicus; test: Maximum efficacy in rat CFA model at 300 umol/kg; format: functional

Row | Compound | ED50 [1] [µmol/kg] | concentration at 0.75 h [2] [ng/g] | Efficacy [3] [%]
1 | NC(CCSCc1ccc(Br)cc1)C(=O)O (stereo not given) | > 300 | – | –
2 | NC(C(=O)O)c1cccc(Cl)c1 (stereo not given) | – | 1760 | 64
3 | N[C@H](C(=O)O)c1ccccc1 | 100 | 6300 | –
4 | N[C@@H](CCSCc1ccccc1)C(=O)O | 120 | 430 | –
5 | N[C@@H](CC1CCCCC1)C(=O)O | 200 | – | –
6 | NCC1(CC(=O)O)CCCCC1 [GABAPENTIN] | 125 | 3410 | –
